Structures can show the parent of a compound that is named as a salt.

The subject of test [1] is STAT3 phosphorylation by IL-6 in TF-1 cells. Description: JAK cellular assay: STAT3 phosphorylation by IL-6 in TF-1 cells (HTRF). It is filed as cell-based. The following applies: Homo sapiens, TF-1, TF-1 cells, IL-6 30 ng/ml, pSTAT3 HTRF; read-out: Cell Based Assay (μM) TF-1/IL-6/pSTAT3. In outline: (§1)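 Phospho-STAT3 (IL-6, 30 ng/ml) and phospho-STAT5 (GMCSF, 5 ng/ml) read by HTRF in lysates after 20 min cytokine exposure, minus unstimulated-cell background. Cells were serum-starved overnight, plated at 120,000/well, given compound 30 min at 37 °C beforehand; DMSO 0.2% final.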
A general note: TR-FRET usually uses a lanthanide donor and a delayed reading to cut background.

The next test deals with T1, Recombinant TYK2 (Homo sapiens, UniProt P29597).
T1 construct: purchased Carna Biosciences
T1 sequence (P29597 whole entry): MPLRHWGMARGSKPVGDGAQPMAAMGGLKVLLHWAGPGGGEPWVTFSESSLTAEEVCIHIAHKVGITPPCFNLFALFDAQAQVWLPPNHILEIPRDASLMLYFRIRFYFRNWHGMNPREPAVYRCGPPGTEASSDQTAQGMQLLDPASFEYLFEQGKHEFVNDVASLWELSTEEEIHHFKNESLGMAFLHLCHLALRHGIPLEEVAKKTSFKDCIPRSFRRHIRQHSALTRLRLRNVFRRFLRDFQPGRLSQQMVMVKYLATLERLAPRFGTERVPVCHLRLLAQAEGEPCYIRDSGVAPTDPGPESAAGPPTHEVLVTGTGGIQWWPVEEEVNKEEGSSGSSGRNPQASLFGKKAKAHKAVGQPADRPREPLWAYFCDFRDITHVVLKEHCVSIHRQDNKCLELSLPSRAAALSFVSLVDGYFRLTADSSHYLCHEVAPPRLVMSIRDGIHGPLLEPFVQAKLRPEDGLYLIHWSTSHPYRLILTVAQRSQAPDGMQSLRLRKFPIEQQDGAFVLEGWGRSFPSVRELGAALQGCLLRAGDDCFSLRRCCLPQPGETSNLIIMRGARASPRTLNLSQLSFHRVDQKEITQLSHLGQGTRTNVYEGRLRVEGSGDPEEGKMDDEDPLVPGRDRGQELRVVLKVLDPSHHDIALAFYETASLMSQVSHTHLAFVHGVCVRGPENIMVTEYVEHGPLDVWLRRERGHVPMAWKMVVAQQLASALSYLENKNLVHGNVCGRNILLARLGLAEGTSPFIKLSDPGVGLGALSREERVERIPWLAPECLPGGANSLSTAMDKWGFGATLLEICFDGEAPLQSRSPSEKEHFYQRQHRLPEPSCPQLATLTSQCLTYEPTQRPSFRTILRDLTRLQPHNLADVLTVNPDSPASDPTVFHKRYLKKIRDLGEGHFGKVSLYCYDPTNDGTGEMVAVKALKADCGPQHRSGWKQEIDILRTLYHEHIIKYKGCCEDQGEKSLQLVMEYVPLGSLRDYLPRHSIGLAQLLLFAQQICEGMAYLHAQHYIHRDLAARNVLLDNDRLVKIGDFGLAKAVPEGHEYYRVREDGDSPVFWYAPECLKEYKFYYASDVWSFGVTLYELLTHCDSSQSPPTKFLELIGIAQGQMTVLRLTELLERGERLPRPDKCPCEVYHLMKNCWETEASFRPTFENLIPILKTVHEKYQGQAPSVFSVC
Description: JAK biochemical assay (LANCE Ultra TR-FRET), TYK2. Conditions: recombinant TYK2, TR-FRET; read-out: Biochemical Assay (μM) TYK2. In outline: (§2)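 TR-FRET read-out of ULight substrate phosphorylation by recombinant kinase gives % inhibition relative to vehicle. The assay buffer is HEPES pH 7.5 with EGTA, MgCl2, DTT and Tween-20.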

Test [2] has as its system STAT5 phosphorylation by GMCSF in TF-1 cells. Description: JAK cellular assay: STAT5 phosphorylation by GMCSF in TF-1 cells (HTRF). In kind it is cell-based. Conditions: Homo sapiens; TF-1 cells, GMCSF 5 ng/ml, pSTAT5 HTRF; read-out: Cell Based Assay (μM) TF-1/GMCSF/pSTAT5. In outline:
as §1

The target of the next test is T2, Recombinant JAK3 (Homo sapiens, UniProt P52333).
T2 construct: purchased Carna Biosciences
T2 sequence (P52333 1-1124): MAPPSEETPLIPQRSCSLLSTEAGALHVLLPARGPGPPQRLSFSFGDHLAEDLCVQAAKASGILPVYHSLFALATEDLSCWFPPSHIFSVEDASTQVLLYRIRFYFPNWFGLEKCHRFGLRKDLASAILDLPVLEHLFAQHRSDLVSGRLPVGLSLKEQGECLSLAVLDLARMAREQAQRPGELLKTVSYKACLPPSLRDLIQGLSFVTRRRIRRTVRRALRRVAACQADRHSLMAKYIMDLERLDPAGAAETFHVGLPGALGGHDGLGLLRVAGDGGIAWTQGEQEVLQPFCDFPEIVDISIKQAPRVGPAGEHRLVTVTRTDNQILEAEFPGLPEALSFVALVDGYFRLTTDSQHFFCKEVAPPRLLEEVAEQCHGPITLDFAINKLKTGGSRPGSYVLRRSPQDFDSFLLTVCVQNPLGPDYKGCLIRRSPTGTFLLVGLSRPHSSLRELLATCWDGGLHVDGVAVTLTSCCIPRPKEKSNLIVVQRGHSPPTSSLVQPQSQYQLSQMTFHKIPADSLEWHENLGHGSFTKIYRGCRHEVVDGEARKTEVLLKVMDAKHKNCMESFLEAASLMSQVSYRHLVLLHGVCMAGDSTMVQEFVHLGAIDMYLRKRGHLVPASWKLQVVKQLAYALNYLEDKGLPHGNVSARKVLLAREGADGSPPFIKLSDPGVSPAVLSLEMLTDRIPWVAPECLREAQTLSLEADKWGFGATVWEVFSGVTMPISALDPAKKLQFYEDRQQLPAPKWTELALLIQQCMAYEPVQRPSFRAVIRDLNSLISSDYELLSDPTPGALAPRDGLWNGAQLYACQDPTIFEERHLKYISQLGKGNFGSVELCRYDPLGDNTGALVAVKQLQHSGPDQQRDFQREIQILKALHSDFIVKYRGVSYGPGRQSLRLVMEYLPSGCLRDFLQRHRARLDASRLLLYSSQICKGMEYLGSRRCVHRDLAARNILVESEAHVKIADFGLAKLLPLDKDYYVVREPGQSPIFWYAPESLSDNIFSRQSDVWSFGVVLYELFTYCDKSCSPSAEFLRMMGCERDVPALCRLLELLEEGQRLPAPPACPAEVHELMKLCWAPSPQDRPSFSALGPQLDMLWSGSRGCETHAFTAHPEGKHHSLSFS
The test can be described thus: JAK biochemical assay (LANCE Ultra TR-FRET), JAK3. The following applies: recombinant JAK3, TR-FRET; read-out: Biochemical Assay (μM) JAK3. In outline: as §2

The test system of test [3] is STAT5 phosphorylation by IL-2 in HT-2 cells. The test can be described thus: STAT5 phosphorylation by IL-2 in HT-2 cells (HTRF). In kind it is cell-based. Conditions: HT2, HT-2 cells, IL-2 50 U/ml, pSTAT5 HTRF; read-out: Cell Based Assay (μM) HT-2/IL-2/pSTAT5. As for the experimental part: HT-2 cells were starved […] in RPMI phenol red with 10% fetal bovine serum for 4 hours in CO2 incubator maintained at 37° c. Compounds were diluted in DMSO and added to 96 well plate containing a final density of 1,20,000 cells per well. Cells and compounds are incubated for 30 minutes in CO2 incubator maintained at 37° C. and final DMSO concentration in cell based assay was 0.2%. Human recombinant cytokine, IL-2 (50 U/ml) was added to the plate containing cells and compound and incubated for 20 minutes with gentle tapping/shaking at every 5 minutes once. Compound mediated effects on STAT5 phosphorylation was measured in the lysates prepared by using CISBIO pSTAT5 detection kit by HTRF method. Background signal obtained from cells which were not activated with cytokines, was subtracted from vehicle controls and compound treated wells.

The next test addresses T3, Recombinant JAK2 (Homo sapiens, UniProt O60674).
T3 construct: purchased Carna Biosciences
The test can be described thus: JAK biochemical assay (LANCE Ultra TR-FRET), JAK2. The following applies: recombinant JAK2, TR-FRET; read-out: Biochemical Assay (μM) JAK2. In outline: as §2

The target in another test is T4, Recombinant JAK1 (Homo sapiens, UniProt P23458).
T4 construct: purchased Carna Biosciences
T4 sequence (P23458 whole entry): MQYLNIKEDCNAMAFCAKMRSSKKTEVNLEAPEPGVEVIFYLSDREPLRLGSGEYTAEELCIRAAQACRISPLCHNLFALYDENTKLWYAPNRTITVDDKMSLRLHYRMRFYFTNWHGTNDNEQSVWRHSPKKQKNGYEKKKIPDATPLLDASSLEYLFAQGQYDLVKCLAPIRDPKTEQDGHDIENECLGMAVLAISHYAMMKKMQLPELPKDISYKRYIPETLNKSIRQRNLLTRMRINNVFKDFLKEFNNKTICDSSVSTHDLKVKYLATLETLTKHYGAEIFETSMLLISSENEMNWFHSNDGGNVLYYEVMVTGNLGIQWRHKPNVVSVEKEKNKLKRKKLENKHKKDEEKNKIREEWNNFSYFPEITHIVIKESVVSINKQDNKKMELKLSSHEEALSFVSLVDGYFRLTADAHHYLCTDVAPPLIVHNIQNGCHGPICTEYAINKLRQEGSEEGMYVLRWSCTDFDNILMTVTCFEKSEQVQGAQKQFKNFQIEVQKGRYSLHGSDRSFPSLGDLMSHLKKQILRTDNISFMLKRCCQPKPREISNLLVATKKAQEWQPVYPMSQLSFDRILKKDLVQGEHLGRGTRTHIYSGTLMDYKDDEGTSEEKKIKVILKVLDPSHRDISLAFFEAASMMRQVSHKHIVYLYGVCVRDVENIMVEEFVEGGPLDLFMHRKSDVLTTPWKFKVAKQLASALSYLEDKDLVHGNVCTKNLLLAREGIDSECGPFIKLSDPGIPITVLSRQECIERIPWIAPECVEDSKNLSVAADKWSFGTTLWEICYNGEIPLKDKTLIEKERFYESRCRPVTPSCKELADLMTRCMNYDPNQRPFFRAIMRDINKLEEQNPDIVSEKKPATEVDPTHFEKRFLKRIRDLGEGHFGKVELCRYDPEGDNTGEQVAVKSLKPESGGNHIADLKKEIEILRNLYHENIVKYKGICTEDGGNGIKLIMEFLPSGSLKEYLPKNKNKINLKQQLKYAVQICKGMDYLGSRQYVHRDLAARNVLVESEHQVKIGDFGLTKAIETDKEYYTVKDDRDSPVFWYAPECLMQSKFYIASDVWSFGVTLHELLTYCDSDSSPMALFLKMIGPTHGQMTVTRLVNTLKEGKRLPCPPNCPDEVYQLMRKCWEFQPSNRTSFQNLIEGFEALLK
The test can be described thus: JAK biochemical assay (LANCE Ultra TR-FRET), JAK1. The following applies: recombinant JAK1, TR-FRET; read-out: Biochemical Assay (μM) JAK1. In outline: as §2

T3 sequence (O60674 whole entry): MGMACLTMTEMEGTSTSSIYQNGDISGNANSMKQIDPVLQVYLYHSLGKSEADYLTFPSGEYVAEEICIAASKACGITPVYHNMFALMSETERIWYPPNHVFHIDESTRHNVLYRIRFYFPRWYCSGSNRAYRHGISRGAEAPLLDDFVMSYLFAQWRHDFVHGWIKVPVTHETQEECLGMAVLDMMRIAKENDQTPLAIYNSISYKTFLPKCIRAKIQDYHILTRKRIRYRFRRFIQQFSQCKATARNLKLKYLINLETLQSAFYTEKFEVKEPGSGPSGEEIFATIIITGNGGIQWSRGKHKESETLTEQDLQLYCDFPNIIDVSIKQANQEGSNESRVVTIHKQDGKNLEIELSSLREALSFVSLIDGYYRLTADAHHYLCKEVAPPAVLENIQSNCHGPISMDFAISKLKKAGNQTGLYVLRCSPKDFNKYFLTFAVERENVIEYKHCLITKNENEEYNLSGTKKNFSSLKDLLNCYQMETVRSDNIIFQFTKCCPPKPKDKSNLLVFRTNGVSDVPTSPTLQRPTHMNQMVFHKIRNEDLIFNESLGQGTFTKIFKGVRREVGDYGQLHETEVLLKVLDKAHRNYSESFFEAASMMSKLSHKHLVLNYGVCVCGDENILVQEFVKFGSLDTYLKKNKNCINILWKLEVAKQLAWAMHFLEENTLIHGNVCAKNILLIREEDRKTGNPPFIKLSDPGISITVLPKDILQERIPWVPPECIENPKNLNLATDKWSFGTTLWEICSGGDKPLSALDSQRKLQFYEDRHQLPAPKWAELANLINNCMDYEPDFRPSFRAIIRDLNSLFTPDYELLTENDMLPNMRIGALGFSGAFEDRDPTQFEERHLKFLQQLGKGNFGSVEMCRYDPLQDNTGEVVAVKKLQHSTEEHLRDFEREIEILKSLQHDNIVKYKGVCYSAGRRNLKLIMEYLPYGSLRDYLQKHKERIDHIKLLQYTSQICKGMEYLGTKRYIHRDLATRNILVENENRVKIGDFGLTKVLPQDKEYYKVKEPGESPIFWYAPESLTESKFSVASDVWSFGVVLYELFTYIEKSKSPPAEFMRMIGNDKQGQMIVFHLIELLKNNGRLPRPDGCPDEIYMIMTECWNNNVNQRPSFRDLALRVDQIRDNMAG

On to `O=C(Nc1ccncc1)N1CCN(c2ccnc3[nH]c(=O)[nH]c23)CC1` [Example 1014, 4-(2,3-dihydro-2-oxo-1H-imidazo[4,5-b]pyridin-7-yl)-N-(pyridin-4-yl)piperazine-1-carboxamide], for which the IC50 in test [1] is over 10 µM; at Recombinant TYK2 it was over 1 µM; in test [2], over 10 µM; at Recombinant JAK3, over 1 µM; in test [3] it was over 10 µM.

Take `N#CC1CN(C(=O)CCC(c2ccc(-n3cc(-c4ccnc5[nH]cnc45)cn3)nc2)C(F)(F)F)C1` (centres unmarked) [Example 1250, 1-(4-(6-(4-(3H-imidazo[4,5-b]pyridin-7-yl)-1H-pyrazol-1-yl)pyridin-3-yl)-5,5,5-trifluoropentanoyl)azetidine-3-carbonitrile]: the IC50 in test [1] is over 1 µM; on Recombinant TYK2, over 1 µM; on Recombinant JAK2, under 0.1 µM; at Recombinant JAK1, under 0.1 µM; on Recombinant JAK3, under 0.1 µM; in test [3] it was over 1 µM.

Regarding `CNC(=O)N1CC(C(O)(c2ccc(-n3cc(-c4ccnc5[nH]cnc45)cn3)nc2)C(F)(F)F)C1` (centres unmarked) [Example 1246, 3-(1-(6-(4-(3H-imidazo[4,5-b]pyridin-7-yl)-1H-pyrazol-1-yl)pyridin-3-yl)-2,2,2-trifluoro-1-hydroxyethyl)-N-methylazetidine-1-carboxamide], the IC50 is 1.5 µM in test [1]; 0.79 µM at Recombinant TYK2; 0.034 µM on Recombinant JAK2; 0.006 µM at Recombinant JAK1; 0.006 µM on Recombinant JAK3; 2 µM in test [3].

Turning to `N#CCC(=O)NCCC(c1ccc(-n2cc(-c3ccnc4[nH]cnc34)cn2)nc1)C(F)(F)F` (centres unmarked) [Example 1248, N-(3-(6-(4-(3H-imidazo[4,5-b]pyridin-7-yl)-1H-pyrazol-1-yl)pyridin-3-yl)-4,4,4-trifluorobutyl)-2-cyanoacetamide], the IC50 in test [1] is over 0.75 µM; on Recombinant TYK2 it was over 0.5 µM; on Recombinant JAK2, under 0.1 µM; on Recombinant JAK1, under 0.1 µM; on Recombinant JAK3, under 0.1 µM; in test [3] it was over 0.8 µM.

With `N#CCC(=O)NC(c1ccc(-n2cc(-c3ccnc4[nH]cnc34)cn2)nc1)C(F)(F)F` (centres unmarked) [Example 1192, N-(1-(6-(4-(3H-imidazo[4,5-b]pyridin-7-yl)-1H-pyrazol-1-yl)pyridin-3-yl)-2,2,2-trifluoroethyl)-2-cyanoacetamide], the IC50 in test [1] was over 0.8 µM; at Recombinant TYK2, over 1 µM; at Recombinant JAK2, under 0.1 µM; at Recombinant JAK1 it was under 0.1 µM; on Recombinant JAK3, under 0.1 µM; in test [3], over 0.8 µM.

For `CNC(=O)C[C@@H](c1ccc(-n2cc(-c3ccnc4[nH]cnc34)cn2)nc1)C(F)(F)F` [Example 1214, (S)-3-(6-(4-(3H-imidazo[4,5-b]pyridin-7-yl)-1H-pyrazol-1-yl)pyridin-3-yl)-4,4,4-trifluoro-N-methylbutanamide], the IC50 in test [1] is over 1 µM; on Recombinant TYK2, over 1 µM; at Recombinant JAK2 it was under 0.5 µM; at Recombinant JAK1 it was under 0.1 µM; on Recombinant JAK3, under 0.1 µM; in test [3] it was over 1 µM.

`CC(C)N1CCC([C@@](O)(c2ccc(-n3cc(-c4ccnc5[nH]cnc45)cn3)cc2)C(F)(F)F)C1` (stereo partly drawn) [Example 1252, (R)-1-(4-(4-(3H-imidazo[4,5-b]pyridin-7-yl)-1H-pyrazol-1-yl)phenyl)-2,2,2-trifluoro-1-(1-isopropylpyrrolidin-3-yl)ethanol]: the IC50 in test [1] is 1.1 µM; on Recombinant TYK2, over 0.5 µM; at Recombinant JAK2, under 0.1 µM; on Recombinant JAK1, under 0.1 µM; at Recombinant JAK3, under 0.1 µM; in test [3], 1.63 µM.

With `CNC(=O)C[C@H](c1ccc(-n2cc(-c3ccnc4[nH]cnc34)cn2)nc1)C(F)(F)F` [Example 1213, (R)-3-(6-(4-(3H-imidazo[4,5-b]pyridin-7-yl)-1H-pyrazol-1-yl)pyridin-3-yl)-4,4,4-trifluoro-N-methylbutanamide], the IC50 was 0.55 µM in test [1]; over 0.5 µM on Recombinant TYK2; under 0.1 µM on Recombinant JAK2; under 0.1 µM on Recombinant JAK1; under 0.1 µM on Recombinant JAK3; 0.7 µM in test [3].

Regarding `CNCC[C@@H](c1ccc(-n2cc(-c3ccnc4[nH]cnc34)cn2)nc1)C(F)(F)F` [Example 1217, (S)-3-(6-(4-(3H-imidazo[4,5-b]pyridin-7-yl)-1H-pyrazol-1-yl)pyridin-3-yl)-4,4,4-trifluoro-N-methylbutan-1-amine, TFA salt], the IC50 in test [1] is over 0.1 µM; on Recombinant TYK2, 0.08 µM; on Recombinant JAK2, 0.007 µM; at Recombinant JAK1, 0.0026 µM; at Recombinant JAK3, 0.006 µM; in test [3], over 0.5 µM.

Regarding `CS(=O)(=O)CCC(c1ccc(-n2cc(-c3ccnc4[nH]cnc34)cn2)cc1)C(F)(F)F` (centres unmarked) [Example 1190, 7-(1-(4-(1,1,1-trifluoro-4-(methylsulfonyl)butan-2-yl)phenyl)-1H-pyrazol-4-yl)-3H-imidazo[4,5-b]pyridine], the IC50 was 1 µM in test [1]; over 1 µM on Recombinant TYK2; under 0.1 µM at Recombinant JAK2; under 0.1 µM at Recombinant JAK1; under 0.1 µM on Recombinant JAK3; 3.6 µM in test [3].

Consider `O=C(NCC(F)(F)F)N1CCN(c2ccnc3[nH]c(=O)[nH]c23)CC1` [Example 1011, N-(2,2,2-trifluoroethyl)-4-(2,3-dihydro-2-oxo-1H-imidazo[4,5-b]pyridin-7-yl)piperazine-1-carboxamide], for which the IC50 in test [1] was over 10 µM; at Recombinant TYK2, over 1 µM; on Recombinant JAK2, over 1 µM; in test [2], over 10 µM; at Recombinant JAK3, over 1 µM; in test [3], over 10 µM.

Take `CC(C)NCC[C@@H](c1ccc(-n2cc(-c3ccnc4[nH]cnc34)cn2)nc1)C(F)(F)F` [Example 1207, (S)-3-(6-(4-(3H-imidazo[4,5-b]pyridin-7-yl)-1H-pyrazol-1-yl)pyridin-3-yl)-4,4,4-trifluoro-N-isopropylbutan-1-amine]: the IC50 in test [1] was 0.43 µM; at Recombinant TYK2, over 0.5 µM; at Recombinant JAK2, 0.01 µM; at Recombinant JAK1, 0.005 µM; at Recombinant JAK3 it was 0.005 µM; in test [3], 1.08 µM.

For the origin of these results see US12516056B2, “Compounds for inhibition of janus kinase 1” (MANKIND PHARMA LTD., priority 2019, dated 2026).
